The text below walks through data of ChEMBL document CHEMBL5131397, “Discovery and Optimization of Pyrazole Amides as Inhibitors of ELOVL1” (J Med Chem, 2021).

A short description of data set [1]: Intrinsic clearance in rat hepatocytes assessed per million cells. The class given is ADME, cell-based, Hepatocyte. The following applies: read-out: CLH.
For data set [2], the target named is T1, Very long chain fatty acid elongase 1 (Homo sapiens, UniProt Q9BW60).
T1 sequence (Q9BW60 whole entry): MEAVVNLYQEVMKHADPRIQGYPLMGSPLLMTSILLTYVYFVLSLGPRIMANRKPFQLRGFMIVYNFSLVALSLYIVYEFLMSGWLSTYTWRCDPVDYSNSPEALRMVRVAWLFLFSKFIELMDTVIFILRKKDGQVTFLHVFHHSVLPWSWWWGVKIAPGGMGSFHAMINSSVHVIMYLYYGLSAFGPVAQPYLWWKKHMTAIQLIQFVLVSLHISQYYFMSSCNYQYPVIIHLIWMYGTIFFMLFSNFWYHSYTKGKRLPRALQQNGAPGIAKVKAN
Put plainly: Inhibition of ELOVL1 (unknown origin) using C22-acyl-CoA as substrate by radiometric enzyme assay.

Data set [3] is described as follows: Intrinsic clearance in human hepatocytes assessed per million cells. The class given is ADME, cell-based, Hepatocyte. The following applies: read-out: CLH.
Data set [4] has as its target T1, Very long chain fatty acid elongase 1. Put plainly: Inhibition of ELOVL1 in human HEK2936E cells assessed as reduction of C26:0 LPC synthesis incubated for 48 hrs by cellular assay. The class given is cell-based.

Regarding `O=C(Cc1ccccc1F)Nc1ccn(-c2ccccc2)n1`, the hepatocyte CLint in data set [1] worked out at 182 µL/min/1e6 cells; in data set [3], 55 µL/min/1e6 cells. The IC50 (usually the concentration that gives 50% inhibition) in data set [2] was 1600 nM; in data set [4], 60 nM.
The like results for `O=C(Nc1ccn(-c2ncns2)n1)C1(c2ccccc2F)CC1` were, in that order, 25 µL/min/1e6 cells, 14 µL/min/1e6 cells, 400 nM and 18 nM.
As to `O=C(Nc1ccn(-c2ccccc2)n1)C1(c2ccccc2)COC1`, the hepatocyte CLint in data set [1] came out at 32 µL/min/1e6 cells; in data set [3], 31 µL/min/1e6 cells. Further, the half-inhibitory concentration (IC50) in data set [2] was 8200 nM; in data set [4], 260 nM.
For `Cc1ccccc1C1(C(=O)Nc2ccn(-c3cncc(F)c3)n2)CC1` the same measures were 400 µL/min/1e6 cells, 40 µL/min/1e6 cells, 7500 nM and 400 nM.
For `O=C(Cc1ccccc1)Nc1nc(-c2ccccc2)cs1` the same measures were 398 µL/min/1e6 cells, 127 µL/min/1e6 cells, 4000 nM and 500 nM.
On to `O=C(Nc1ccn(-c2ccncc2)n1)C1(c2ccccc2F)CC1`, for which the hepatocyte CLint in data set [1] amounted to 80 µL/min/1e6 cells. The IC50 stood at 1500 nM in data set [2] and 80 nM in data set [4].
In the case of `O=C(Cc1ccccc1F)Nc1cnn(-c2ccccc2)c1`, the values for the half-inhibitory concentration (IC50) in data set [2] and in data set [4] were over 50000 nM and over 5000 nM, respectively.
In the case of `O=C(Nc1ccn(-c2cncc(F)c2)n1)C1(c2ccccc2Cl)CC1`, the hepatocyte CLint in data set [1] was found to be 61 µL/min/1e6 cells; in data set [3] it was 8 µL/min/1e6 cells. For the same compound, the IC50 in data set [2] amounted to 4500 nM; in data set [4] it was 110 nM.
`C[C@@H](C(=O)Nc1ccn(-c2ccccc2)n1)c1ccccc1`: the hepatocyte CLint was 313 µL/min/1e6 cells in data set [1] and 56 µL/min/1e6 cells in data set [3]. For the same compound, the figures for the IC50 in data set [2] and in data set [4] were 1600 nM and 210 nM, respectively.
For `COc1ccc(C2(C(=O)Nc3ccn(-c4cncc(F)c4)n3)CC2)cc1` the same measures were 103 µL/min/1e6 cells, 11 µL/min/1e6 cells, 3700 nM and 640 nM.
On to `O=C(Cc1ccccc1F)Nc1cccc(-c2ccccc2)n1`, for which the figures for the IC50 in data set [2] and in data set [4] were over 50000 nM and over 5000 nM, respectively.
In the case of `O=C(Nc1ccn(-c2ccccc2)n1)C1(c2ccccc2)CC1(F)F` (stereo not drawn), the hepatocyte CLint in data set [1] was found to be 278 µL/min/1e6 cells; in data set [3] it was 194 µL/min/1e6 cells. Further, the 50% inhibitory concentration (IC50) in data set [2] is 980 nM; in data set [4], 140 nM.
The like results for `O=C(Nc1ccn(-c2ccccc2)n1)C1(c2ccccc2)CC1` were, in that order, 111 µL/min/1e6 cells, 38 µL/min/1e6 cells, 500 nM and 20 nM.
For `O=C(Nc1ccn(-c2cncc(F)c2)n1)C1(c2c(F)cccc2F)CC1` the same measures were 13 µL/min/1e6 cells, 4 µL/min/1e6 cells, 1200 nM and 17 nM.
For `N#Cc1ccccc1C1(C(=O)Nc2ccn(-c3cncc(F)c3)n2)CC1` the same measures were 13 µL/min/1e6 cells, 5 µL/min/1e6 cells, 23000 nM and 2500 nM.
For `COc1cc(-n2ccc(NC(=O)C3(c4ccccc4F)CC3)n2)ccn1`, the hepatocyte CLint in data set [1] worked out at 130 µL/min/1e6 cells; in data set [3], 11 µL/min/1e6 cells. Besides, the concentration for half-maximal inhibition (IC50) was determined as 1200 nM in data set [2] and 50 nM in data set [4].
Regarding `N#Cc1ccc(C2(C(=O)Nc3ccn(-c4cncc(F)c4)n3)CC2)cc1`, the results for the hepatocyte CLint in data set [1] and in data set [3] were 8 µL/min/1e6 cells and 5 µL/min/1e6 cells, respectively. Moreover, the IC50 in data set [2] came to 2200 nM; in data set [4], 110 nM.
For `O=C(Cc1ccccc1)Nc1ccn(-c2ccccc2)n1` the same measures were 519 µL/min/1e6 cells, 90 µL/min/1e6 cells, 2700 nM and 70 nM.
For `O=C(Cc1ccccc1F)Nc1cnn(-c2ccccc2)n1` the same measures were 518 µL/min/1e6 cells, 101 µL/min/1e6 cells, over 8000 nM and 900 nM.
The like results for `Cc1cc(-n2ccc(NC(=O)C3(c4ccccc4F)CC3)n2)ccn1` were, in that order, 78 µL/min/1e6 cells, 7 µL/min/1e6 cells, 21000 nM and 1600 nM.
Consider `N#Cc1cccc(C2(C(=O)Nc3ccn(-c4cncc(F)c4)n3)CC2)c1`, for which the hepatocyte CLint in data set [1] was determined as 60 µL/min/1e6 cells; in data set [3], 4 µL/min/1e6 cells. In addition, the IC50 turned out to be 2300 nM in data set [2] and 310 nM in data set [4].
For `C[C@H](C(=O)Nc1ccn(-c2ccccc2)n1)c1ccccc1` the same measures were 308 µL/min/1e6 cells, 37 µL/min/1e6 cells, 2000 nM and 38 nM.
`O=C(Nc1ccn(-c2cncc(F)c2)n1)C1(c2cccc(F)c2)CC1`: the hepatocyte CLint stood at 97 µL/min/1e6 cells in data set [1] and 8 µL/min/1e6 cells in data set [3]. For the same compound, the 50% inhibitory concentration (IC50) in data set [2] was determined as 1600 nM; in data set [4], 190 nM.
Consider `O=C(Cc1ccccc1F)Nc1ccnc(-c2ccccc2)n1`, for which, in data set [2], the IC50 is over 50000 nM.
`CC(C)(C(=O)Nc1ccn(-c2ccccc2)n1)c1ccccc1`: the hepatocyte CLint in data set [1] was found to be 262 µL/min/1e6 cells; in data set [3], 18 µL/min/1e6 cells. Moreover, the 50% inhibitory concentration (IC50) worked out at 2700 nM in data set [2] and 300 nM in data set [4].
For `O=C(Cc1ccccc1F)Nc1ncc(-c2ccccc2)o1`, the IC50 in data set [2] is over 50000 nM.
On to `O=C(Nc1ccn(-c2ccccc2)n1)C1(c2ccccc2F)CC1`, for which the values for the hepatocyte CLint in data set [1] and in data set [3] were 237 µL/min/1e6 cells and 30 µL/min/1e6 cells, respectively. The half-inhibitory concentration (IC50) in data set [2] was 500 nM; in data set [4], 12 nM.
The like results for `O=C(Nc1ccn(-c2ccnc(C(F)(F)F)c2)n1)C1(c2ccccc2F)CC1` were, in that order, 51 µL/min/1e6 cells, 8 µL/min/1e6 cells, over 50000 nM and over 5000 nM.
On to `O=C(Cc1ccccc1F)Nc1nccc(-c2ccccc2)n1`, for which the IC50 in data set [2] is over 50000 nM; in data set [4], over 5000 nM.
Take `CCOC(C(=O)Nc1ccn(-c2ccccc2)n1)c1ccccc1` (stereo not drawn): the 50% inhibitory concentration (IC50) in data set [2] was over 50000 nM; in data set [4], over 5000 nM.
Consider `CC[C@@H](C(=O)Nc1ccn(-c2ccccc2)n1)c1ccccc1`, for which the hepatocyte CLint in data set [1] is 123 µL/min/1e6 cells; in data set [3], 88 µL/min/1e6 cells. The results for the concentration for half-maximal inhibition (IC50) in data set [2] and in data set [4] were 9500 nM and 650 nM, respectively.
On to `CN(C)C(C(=O)Nc1ccn(-c2ccccc2)n1)c1ccccc1` (stereo not drawn), for which the IC50 in data set [2] was over 50000 nM; in data set [4], 1700 nM.
For the compound `O=C(Nc1ccn(-c2cncc(F)c2)n1)C1(c2cccc(F)c2F)CC1`, the hepatocyte CLint came out at 54 µL/min/1e6 cells in data set [1] and 6 µL/min/1e6 cells in data set [3]. For the same compound, the 50% inhibitory concentration (IC50) was determined as 1300 nM in data set [2] and 140 nM in data set [4].
Consider `O=C(Cc1ccccc1F)Nc1ncn(-c2ccccc2)n1`, for which the IC50 in data set [2] was over 50000 nM; in data set [4] it was over 5000 nM.
Consider `CC1(C)CC1(C(=O)Nc1ccn(-c2ccccc2)n1)c1ccccc1` (stereo not drawn), for which the hepatocyte CLint in data set [1] is 239 µL/min/1e6 cells; in data set [3], 50 µL/min/1e6 cells. For the same compound, the IC50 in data set [2] was determined as 4400 nM; in data set [4] it was 900 nM.
For `COc1cccc(C2(C(=O)Nc3ccn(-c4cncc(F)c4)n3)CC2)c1` the same measures were 355 µL/min/1e6 cells, 19 µL/min/1e6 cells, 1500 nM and 170 nM.
For `O=C(Nc1ccn(-c2cncc(F)c2)n1)C1(c2ccccc2)CC1` the same measures were 50 µL/min/1e6 cells, 7 µL/min/1e6 cells, 560 nM and 22 nM.
The like results for `O=C(Nc1ccn(-c2cncc(F)c2)n1)C1(c2ccccc2F)CC1` were, in that order, 68 µL/min/1e6 cells, 10 µL/min/1e6 cells, 1200 nM and 18 nM.
For `O=C(Cc1ccccc1F)Nc1nc(-c2ccccc2)cs1`, the results for the hepatocyte CLint in data set [1] and in data set [3] were 281 µL/min/1e6 cells and 102 µL/min/1e6 cells, respectively. In addition, the IC50 worked out at 3200 nM in data set [2] and 280 nM in data set [4].
Regarding `O=C(Nc1ccn(-c2ccncn2)n1)C1(c2ccccc2F)CC1`, the hepatocyte CLint worked out at 59 µL/min/1e6 cells in data set [1] and 14 µL/min/1e6 cells in data set [3]. The IC50 in data set [2] came to 900 nM; in data set [4], 30 nM.
Turning to `O=C(Nc1ccn(-c2cncc(F)c2)n1)C1(c2ccc(F)cc2)CC1`, the hepatocyte CLint in data set [1] amounted to 88 µL/min/1e6 cells; in data set [3] it was 4 µL/min/1e6 cells. For the same compound, the IC50 was 830 nM in data set [2] and 100 nM in data set [4].
Take `O=C(Nc1ccn(-c2cncc(F)c2)n1)C1(c2ccc(Cl)cc2)CC1`: the hepatocyte CLint in data set [1] stood at 133 µL/min/1e6 cells; in data set [3], 5 µL/min/1e6 cells. The 50% inhibitory concentration (IC50) came out at 2400 nM in data set [2] and 340 nM in data set [4].
As to `COc1ccccc1C1(C(=O)Nc2ccn(-c3cncc(F)c3)n2)CC1`, the values for the 50% inhibitory concentration (IC50) in data set [2] and in data set [4] were over 50000 nM and over 5000 nM, respectively.
With `O=C(Nc1ccn(-c2cncc(F)c2)n1)C1(c2cc(F)ccc2F)CC1`, the hepatocyte CLint came out at 25 µL/min/1e6 cells in data set [1] and 6 µL/min/1e6 cells in data set [3]. For the same compound, the IC50 worked out at 550 nM in data set [2] and 170 nM in data set [4].
The like results for `Nc1cc(-n2ccc(NC(=O)C3(c4ccccc4F)CC3)n2)ccn1` were, in that order, 54 µL/min/1e6 cells, 9 µL/min/1e6 cells, over 20000 nM and 1900 nM.
On to `O=C(Nc1ccn(-c2ccc(F)nc2)n1)C1(c2ccccc2F)CC1`, for which the hepatocyte CLint in data set [1] stood at 23 µL/min/1e6 cells; in data set [3], 6 µL/min/1e6 cells. The results for the IC50 in data set [2] and in data set [4] were 800 nM and 23 nM, respectively.
